Converted amounts (≈) assume the structure as drawn.
What was measured:
Cytochrome P450 2C9 = Cytochrome P450 2C9 (Homo sapiens, UniProt P11712); experiment: Inhibition of CYP2C9 in human liver microsomes using diclofenac as substrate preincubated for 5 mins followed by NADPH addition measured after 10 mins by LC-MS/MS analysis
[1] = Metabolic stability in mouse liver microsomes assessed as parent compound remaining at 1 uM preincubated for 5 mins followed by NADPH addition after 30 mins by LC-MS/MS analysis; type: ADME, Microsome; conditions: read-out: Stability
[2] = Metabolic stability in rat liver microsomes assessed as parent compound remaining at 1 uM preincubated for 5 mins followed by NADPH addition after 30 mins by LC-MS/MS analysis; type: ADME, Microsome; conditions: read-out: Stability
[3] = AUC (0 to t) in Balb/c mouse at 3 mg/kg, iv administered as single dose by LC-MS/MS analysis; type: ADME, organism-based; conditions: in vivo
Cytochrome P450 3A4 [4] = target: T1, Cytochrome P450 3A4 (Homo sapiens, UniProt P08684); experiment: Inhibition of CYP3A4 in human liver microsomes using testosterone as substrate preincubated for 5 mins followed by NADPH addition measured after 10 mins by LC-MS/MS analysis
[5] = Half life in Balb/c mouse at 3 mg/kg, iv administered as single dose by LC-MS/MS analysis; type: ADME, organism-based; conditions: in vivo
Cytochrome P450 2C19 = Cytochrome P450 2C19 (Homo sapiens, UniProt P33261); experiment: Inhibition of CYP2C19 in human liver microsomes using (S)-mephenytoin as substrate preincubated for 5 mins followed by NADPH addition measured after 40 mins by LC-MS/MS analysis
[6] = Solubility of the compound at pH 4; conditions: buffer
[7] = Drug metabolism in human pooled liver microsomes assessed as oxidation metabolic rate at 1 uM preincubated for 5 mins followed by NADPH addition after 30 mins by LC-MS/MS analysis; type: ADME, Microsome; conditions: 0.5 h
[8] = Solubility of the compound at pH 7.4; conditions: buffer
[9] = Drug metabolism in mouse liver microsomes assessed as oxidation metabolic rate at 1 uM preincubated for 5 mins followed by NADPH addition after 30 mins by LC-MS/MS analysis; type: ADME, Microsome; conditions: 0.5 h
[10] = target: T2, Nuclear receptor ROR-gamma (Mus musculus, UniProt P51450); experiment: Inverse agonist activity at RORgammat in mouse splenocytes derived naive T cells assessed as suppression of T cell differentiation to Th17 cells by measuring IL-17 secretion in presence of […]/anti-IFNgamma/TGFbeta/IL-6 for 6 days by ELISA; type: cell-based
T2 sequence (P51450 whole entry): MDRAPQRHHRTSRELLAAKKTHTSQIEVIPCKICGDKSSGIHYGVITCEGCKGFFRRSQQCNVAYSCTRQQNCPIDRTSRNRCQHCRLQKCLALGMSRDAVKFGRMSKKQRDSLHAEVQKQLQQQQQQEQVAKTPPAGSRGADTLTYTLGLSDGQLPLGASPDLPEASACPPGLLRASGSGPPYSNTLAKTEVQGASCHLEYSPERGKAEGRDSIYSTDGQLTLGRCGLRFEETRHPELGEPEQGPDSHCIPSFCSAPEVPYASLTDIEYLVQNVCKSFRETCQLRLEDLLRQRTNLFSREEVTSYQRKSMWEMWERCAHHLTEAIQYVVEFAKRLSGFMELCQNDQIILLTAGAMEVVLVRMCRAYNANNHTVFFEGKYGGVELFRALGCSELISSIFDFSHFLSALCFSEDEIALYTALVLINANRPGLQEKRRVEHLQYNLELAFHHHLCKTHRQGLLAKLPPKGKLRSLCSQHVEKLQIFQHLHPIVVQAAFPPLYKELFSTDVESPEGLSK

[11] = target: T3, Nuclear receptor ROR-gamma (Homo sapiens, UniProt P51449); experiment: Transactivation of recombinant GAL4-DBD fused RORgammat LBD (unknown origin) expressed in HEK293T cells incubated for 18 to 24 hrs by dual-Glo luciferase assay; type: cell-based
T3 sequence (P51449 whole entry): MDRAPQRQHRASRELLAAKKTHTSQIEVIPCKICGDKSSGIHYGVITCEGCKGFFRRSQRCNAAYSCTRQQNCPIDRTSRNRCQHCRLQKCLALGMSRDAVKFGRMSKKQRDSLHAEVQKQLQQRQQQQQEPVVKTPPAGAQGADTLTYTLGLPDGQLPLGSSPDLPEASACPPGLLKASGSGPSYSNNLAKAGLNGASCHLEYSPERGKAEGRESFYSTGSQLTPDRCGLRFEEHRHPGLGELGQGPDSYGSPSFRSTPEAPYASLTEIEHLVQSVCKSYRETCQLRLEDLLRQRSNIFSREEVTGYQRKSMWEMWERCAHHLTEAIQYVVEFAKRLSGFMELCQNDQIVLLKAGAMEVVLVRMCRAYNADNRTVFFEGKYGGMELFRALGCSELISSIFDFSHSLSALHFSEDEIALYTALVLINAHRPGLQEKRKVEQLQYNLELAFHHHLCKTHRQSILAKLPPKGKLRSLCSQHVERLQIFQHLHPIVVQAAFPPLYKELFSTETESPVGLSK

[12] = Drug metabolism in rat liver microsomes assessed as oxidation metabolic rate at 1 uM preincubated for 5 mins followed by NADPH addition after 30 mins by LC-MS/MS analysis; type: ADME, Microsome; conditions: 0.5 h
Cytochrome P450 1A2 = target: T4, Cytochrome P450 1A2 (Homo sapiens, UniProt P05177); experiment: Inhibition of CYP1A2 in human liver microsomes using phenacetin as substrate preincubated for 5 mins followed by NADPH addition measured after 10 mins by LC-MS/MS analysis
T4 sequence (P05177 whole entry): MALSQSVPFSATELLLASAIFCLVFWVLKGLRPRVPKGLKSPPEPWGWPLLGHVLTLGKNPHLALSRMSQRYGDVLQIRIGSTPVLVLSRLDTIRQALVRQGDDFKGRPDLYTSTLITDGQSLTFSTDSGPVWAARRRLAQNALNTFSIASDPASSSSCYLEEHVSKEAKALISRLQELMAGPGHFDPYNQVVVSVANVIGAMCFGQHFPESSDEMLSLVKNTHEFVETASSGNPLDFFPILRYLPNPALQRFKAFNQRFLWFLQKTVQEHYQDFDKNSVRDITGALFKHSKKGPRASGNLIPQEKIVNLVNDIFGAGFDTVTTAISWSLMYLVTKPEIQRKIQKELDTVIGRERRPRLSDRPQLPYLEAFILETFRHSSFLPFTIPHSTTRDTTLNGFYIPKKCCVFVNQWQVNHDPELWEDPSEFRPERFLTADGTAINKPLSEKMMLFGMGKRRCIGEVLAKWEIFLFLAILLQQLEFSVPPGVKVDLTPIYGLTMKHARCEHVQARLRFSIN

[13] = target: T3, Nuclear receptor ROR-gamma; experiment: Inverse agonist activity at GST-tagged RORgammat LBD (unknown origin) using fluorescein-D22 co-activator peptide as substrate incubated for 1 hr by TR-FRET assay
[14] = Clearance in Balb/c mouse at 3 mg/kg, iv administered as single dose by LC-MS/MS analysis; type: ADME, organism-based; conditions: in vivo
Cytochrome P450 3A4 [15] = target: T1, Cytochrome P450 3A4; experiment: Inhibition of CYP3A4 in human liver microsomes using midazolam as substrate preincubated for 5 mins followed by NADPH addition measured after 10 mins by LC-MS/MS analysis
[16] = Oral bioavailability in Balb/c mouse at 10 mg/kg administered via gavage by LC-MS/MS analysis; type: ADME, organism-based; conditions: in vivo
Cytochrome P450 2D6 = Cytochrome P450 2D6 (Homo sapiens, UniProt P10635); experiment: Inhibition of CYP2D6 in human liver microsomes using dextromethorphan as substrate preincubated for 5 mins followed by NADPH addition measured after 10 mins by LC-MS/MS analysis
[17] = Metabolic stability in human liver microsomes assessed as parent compound remaining at 1 uM preincubated for 5 mins followed by NADPH addition after 30 mins by LC-MS/MS analysis; type: ADME, Microsome; conditions: read-out: Stability
[18] = Solubility of the compound at pH 2.1; conditions: buffer
[19] = target: T5, Nuclear receptor ROR-alpha (Homo sapiens, UniProt P35398); experiment: Inhibition of GAL4-DBD fused RORalpha LBD (unknown origin) expressed in HEK293T cells; type: cell-based
T5 sequence (P35398 whole entry): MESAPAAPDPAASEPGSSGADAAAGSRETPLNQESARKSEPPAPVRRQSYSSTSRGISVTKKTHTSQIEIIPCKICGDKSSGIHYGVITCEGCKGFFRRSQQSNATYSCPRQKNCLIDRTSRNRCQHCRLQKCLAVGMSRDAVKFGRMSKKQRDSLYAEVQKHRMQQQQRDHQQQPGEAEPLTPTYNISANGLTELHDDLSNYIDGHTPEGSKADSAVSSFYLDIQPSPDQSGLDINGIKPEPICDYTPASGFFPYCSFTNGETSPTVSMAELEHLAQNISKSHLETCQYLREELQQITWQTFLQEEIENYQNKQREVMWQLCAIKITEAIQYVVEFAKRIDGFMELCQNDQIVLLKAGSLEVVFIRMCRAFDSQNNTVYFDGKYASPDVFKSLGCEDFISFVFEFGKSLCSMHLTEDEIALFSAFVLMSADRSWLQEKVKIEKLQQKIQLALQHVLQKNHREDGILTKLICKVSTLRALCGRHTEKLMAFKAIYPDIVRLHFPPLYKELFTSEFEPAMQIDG

[20] = Cmax in mouse at 10 mg/kg, po; type: ADME, organism-based; design: dose 10 mg/kg, route oral; conditions: in vivo
[21] = target: T6, Nuclear receptor ROR-gamma (Mus musculus) (UniProt P51450); experiment: Transrepression of RORgammat in Balb/c mouse splenocytes assessed as inhibition of anti-CD3/anti-CD28 stimulated IL-17 gene expression at 3 uM measured after 24 hrs in presence of anti-CD3/anti-CD28; type: cell-based
T6 sequence (whole entry): T2 sequence (P51450 whole entry)

[22] = Volume of distribution at steady state in mouse at 3 mg/kg, iv; type: ADME, organism-based; conditions: in vivo, read-out: Vdss
[23] = Tmax in mouse at 10 mg/kg, po; type: ADME, organism-based; conditions: in vivo
[24] = target: T6, Nuclear receptor ROR-gamma (Mus musculus); experiment: Transrepression of RORgammat in Balb/c mouse splenocytes assessed as inhibition of anti-CD3/anti-CD28 stimulated IL-17 gene expression at 30 uM measured after 24 hrs in presence of anti-CD3/anti-CD28; type: cell-based
[25] = Half life in mouse at 3 mg/kg, iv; type: ADME, organism-based; conditions: in vivo
[26] = AUC (0 to 24 hrs) in mouse at 10 mg/kg, po; type: ADME, organism-based; design: dose 10 mg/kg, time < 24 hr, route oral; conditions: in vivo
[27] = target: T6, Nuclear receptor ROR-gamma (Mus musculus); experiment: Transrepression of RORgammat in Balb/c mouse splenocytes assessed as inhibition of anti-CD3/anti-CD28 stimulated IL-17 gene expression at 0.3 uM measured after 24 hrs in presence of anti-CD3/anti-CD28; type: cell-based
[28] = Oral bioavailability in mouse at 10 mg/kg; type: ADME, organism-based; conditions: in vivo
[29] = Clearance in mouse at 3 mg/kg, iv; type: ADME, organism-based; conditions: in vivo

T1 sequence (P08684 whole entry): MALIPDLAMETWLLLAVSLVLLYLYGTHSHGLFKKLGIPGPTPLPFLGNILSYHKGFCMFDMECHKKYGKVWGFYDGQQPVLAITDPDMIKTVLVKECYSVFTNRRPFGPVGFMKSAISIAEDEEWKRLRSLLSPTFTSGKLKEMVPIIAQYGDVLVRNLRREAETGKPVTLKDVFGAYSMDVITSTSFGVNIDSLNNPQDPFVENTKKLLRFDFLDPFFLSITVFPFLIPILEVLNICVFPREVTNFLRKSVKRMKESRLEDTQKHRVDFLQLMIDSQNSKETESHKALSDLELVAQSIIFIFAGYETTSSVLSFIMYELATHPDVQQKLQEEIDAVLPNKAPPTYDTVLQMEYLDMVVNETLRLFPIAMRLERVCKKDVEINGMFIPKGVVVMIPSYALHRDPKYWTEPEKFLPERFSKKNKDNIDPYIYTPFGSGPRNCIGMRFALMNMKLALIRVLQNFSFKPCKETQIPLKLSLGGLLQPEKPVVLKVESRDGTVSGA
Sequence of Cytochrome P450 2D6 (P10635 whole entry): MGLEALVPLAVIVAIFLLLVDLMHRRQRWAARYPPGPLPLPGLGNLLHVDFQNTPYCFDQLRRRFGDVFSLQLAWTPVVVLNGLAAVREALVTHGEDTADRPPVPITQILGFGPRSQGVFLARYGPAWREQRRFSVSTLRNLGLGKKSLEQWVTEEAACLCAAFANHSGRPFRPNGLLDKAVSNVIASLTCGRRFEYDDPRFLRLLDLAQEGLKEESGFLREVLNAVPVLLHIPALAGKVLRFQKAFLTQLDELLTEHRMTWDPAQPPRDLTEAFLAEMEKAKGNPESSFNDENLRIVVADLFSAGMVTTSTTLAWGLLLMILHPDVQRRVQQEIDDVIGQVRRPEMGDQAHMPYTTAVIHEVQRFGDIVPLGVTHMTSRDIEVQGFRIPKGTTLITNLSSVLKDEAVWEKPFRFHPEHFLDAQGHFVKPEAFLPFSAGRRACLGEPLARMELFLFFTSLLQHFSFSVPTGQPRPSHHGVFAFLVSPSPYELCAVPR
Sequence of Cytochrome P450 2C19 (P33261 whole entry): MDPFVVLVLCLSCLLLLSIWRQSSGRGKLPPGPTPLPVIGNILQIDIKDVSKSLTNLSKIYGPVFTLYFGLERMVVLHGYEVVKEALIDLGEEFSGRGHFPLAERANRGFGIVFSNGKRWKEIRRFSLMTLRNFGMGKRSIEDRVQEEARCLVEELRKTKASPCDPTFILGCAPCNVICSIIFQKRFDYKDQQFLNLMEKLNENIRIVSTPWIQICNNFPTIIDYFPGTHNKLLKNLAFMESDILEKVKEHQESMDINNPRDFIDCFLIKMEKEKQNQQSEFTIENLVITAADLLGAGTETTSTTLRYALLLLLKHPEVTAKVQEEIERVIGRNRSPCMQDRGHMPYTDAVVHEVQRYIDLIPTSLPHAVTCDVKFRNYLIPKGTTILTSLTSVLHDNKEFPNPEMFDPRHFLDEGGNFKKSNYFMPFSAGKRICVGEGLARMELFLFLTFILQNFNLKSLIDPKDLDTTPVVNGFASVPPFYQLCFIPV
Sequence of Cytochrome P450 2C9 (P11712 whole entry): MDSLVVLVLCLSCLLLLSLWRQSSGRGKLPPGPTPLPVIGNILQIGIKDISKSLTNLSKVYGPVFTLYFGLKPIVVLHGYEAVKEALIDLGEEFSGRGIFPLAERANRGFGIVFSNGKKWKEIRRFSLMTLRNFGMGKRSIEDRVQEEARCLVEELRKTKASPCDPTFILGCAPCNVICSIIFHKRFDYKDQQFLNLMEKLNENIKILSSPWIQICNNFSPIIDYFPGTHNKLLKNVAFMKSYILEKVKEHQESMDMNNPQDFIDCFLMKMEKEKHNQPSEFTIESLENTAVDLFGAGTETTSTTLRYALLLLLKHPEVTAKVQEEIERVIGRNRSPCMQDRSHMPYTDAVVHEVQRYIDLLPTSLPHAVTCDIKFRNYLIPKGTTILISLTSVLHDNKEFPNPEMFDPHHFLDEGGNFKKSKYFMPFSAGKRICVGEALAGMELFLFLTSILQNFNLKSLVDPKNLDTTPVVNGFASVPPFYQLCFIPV

SMILES | IC50 (Cytochrome P450 2C9) | remaining at 0.5 h, 1 µM [1] | remaining at 0.5 h, 1 µM [2] | AUC(0-t) [3] | half-life [5] | IC50 (Cytochrome P450 2C19) | solubility [6] | Drug metabolism [7] | solubility [8] | Drug metabolism [9] | IC50 [10] | IC50 [11] | Drug metabolism [12] | IC50 (Cytochrome P450 1A2) | IC50 [13] | clearance [14] | IC50 (Cytochrome P450 3A4 [15]) | bioavailability [16] | IC50 (Cytochrome P450 2D6) | remaining at 0.5 h, 1 µM [17] | further results
O=C(O)c1ccc(-n2cc(C(=O)c3c(Cl)cccc3Cl)c3ccccc32)cc1 | 3.8 µM | 99% | 76% | 12.5 µM·h | 276 min | 67.6 µM | < 1 µM | < 0.04 nmol/min/mg | 19 µM (≈ 7.79 µg/mL) | < 0.04 nmol/min/mg | 58 nM | 28 nM | 0.08 nmol/min/mg | 29.9 µM | 1.6 nM | 17 mL/min/kg | > 100 µM | 53% | > 100 µM | 99% | IC50 (Cytochrome P450 3A4 [4]): 15.5 µM; solubility [18]: < 1 µM
Cc1cccc(Cl)c1C(=O)c1cn(-c2ccc(C(=O)O)cc2)c2ccccc12 | 13.5 µM | 85% | 83% | – | – | > 50 µM | 1 µM (≈ 0.39 µg/mL) | – | > 2000 µM | – | – | 25 nM | – | > 50 µM | – | – | > 50 µM | – | > 50 µM | 89% | IC50 [19]: > 30 µM; Cmax [20]: 18.3 µM; inhibition [21]: 49%; Vd [22]: 2.5 L/kg; Tmax [23]: 15 min; inhibition [24]: 56%; half-life [25]: 192 min; AUC(0-t) at 24 h [26]: 19.6 µM·h; inhibition [27]: 3%; solubility [18]: 1 µM (≈ 0.39 µg/mL); bioavailability [28]: 45%; clearance [29]: 9.6 mL/min/kg
O=C(O)c1ccc(-c2nn(C(=O)c3c(Cl)cccc3Cl)c3ccccc23)cc1 | – | – | – | 13.2 µM·h | 67.2 min | – | – | 0.04 nmol/min/mg | – | < 0.04 nmol/min/mg | 43 nM | 20 nM | 0.19 nmol/min/mg | – | 2 nM | 12.9 mL/min/kg | – | 42% | – | – | inhibition [21]: 48%; inhibition [24]: 52%; inhibition [27]: 15%
